Where “and” joins values, the source holds several entries; their conditions need not be identical. Equal values may be shown once.
Legend:
[1] = system: thymocyte proliferation (cells from the thymus, PHA and IL-1); assay: comitogen-induced thymocyte proliferation procedure (LAF); assay type: cell-based, BALB/c mice
Protocol: Briefly, cells from the thymus of normal BAUI/c mioe are cultured for 72 hours with PHA and IL-1 and pulsed with tritiated thymidine during the last six hours. […] Cells are harvested and incorporated; radioactivity is determined. Inhibition of lymphoproliferation is assessed in percent change in counts per minute from nondrug treated controls.

[2] = system: pinch skin graft from male DBA/2 donors transplanted to male BALB/c recipients; assay: pinch skin graft survival; assay type: in vivo; conditions: intraperitoneal
Protocol: (§1) Immunosuppressive activity was evaluated in an in vitro standard pharmacological test procedure to measure lymphocyte proliferation (LAF), in an in vivo procedure to evaluate the survival time of a pinch skin graft, and in an in vivo procedure to determine inhibition of T-cell mediated inflammatory response (adjuvant arthritis).
The in vivo test procedure is designed to determine the survival time of pinch skin graft from male DBA/2 donors transplanted to male BALB/c recipients. The method is adapted from Brllingham R. E. and Medawar P. B., J. Exp. Biol. 28:385-402, (1951). Briefly, a pinch skin graft from the donor is grafted on the dorsum of the recipient as a homograft, and an autograft is used as control in the same region. […] Untreated recipients serve as rejection control. The graft is monitored daily and observations are recorded until the graft becomes dry and forms a blackened scab. This is considered as the rjection day. The mean graft survival time (MST -number of days±S.D.) of the drug treatment group is compared with the control group. Rapamycin treatment provides a mean graft survival (MST) of is 12.0±1.7 days.

[3] = system: Freund's Complete Adjuvant (FCA) induced arthritis; assay: adjuvant arthritis standard pharmacological test procedure; assay type: in vivo, rats (male inbred Wistar Lewis)
Protocol: as §1
The in vivo adjuvant arthritis standard pharmacological test procedure measures the abilty of test compounds to prevent immune mediated inflammation and inhibit or treat rheumatoid arthritis. The following briefly describes the test procedure used. A group of rats (male inbred Wistar Lewis rats) are pre-treated with the compound to be tested (1 h prior to antigen) and then injected with Freund's Complete Adjuvant (FCA) in the right hind paw to induce arthritis. The rats are then orally dosed on a Monday, Wednesday, Friday schedule from day 0-14 for a total of 7 doses. Both hind paws are measured on days 16, 23 and 30. The difference in paw volume (mL) from day 16 to day 0 is determined and a percent change from control is obtained. The left hind paw (uninjected paw) inflammation is caused by T-cell mediated inflammation and is recorded as percent change from control. The right hind paw inflammation, on the other hand, is caused by non-specific inflammation. Compounds were tested at a dose of 2 mg/kg.

[4] = system: colon (MIP 101) cancer cell line; assay: inhibition of growth of human tumor cells in vitro (Sulforhodaine B); assay type: cell-based; conditions: MIP 101, 48 hours exposure
Protocol: (§2) Human tumor cell lines were plated in 96-well plates (250 μL well, 1-6×10^4 cells/mL) in RPMI 1640 medium, containing 5% FBS (Petal Bovine Serum). Twenty-four hours after plating, drugs were added at five log concentrations (0.01-100 μg/mL). After 48 hours exposure to drugs, cells were fixed with trichloroacteic acid, and stained with Sulforhodaine B. After washing with trichloroacetic acid, bound dye was solubilized in 10 mM Tris base and Optical Density was determined using a plate reader. Under conditions of the assay, the optical density is proportional to the number of cells in the well. IC50 s (concentrations causing 50% inhibition of cell growth) were determined from the growth inhibition plots. The assay is described in details by Philip Skehan et al., J. National Cancer Institute 82, 1107-1112, 1990.

[5] = system: breast (T47D) cancer cell line; assay: as above; assay type: cell-based; conditions: 48 hours exposure
Protocol: as §2

[6] = system: ovarian (A 2780S) cancer cell line; assay: as above; assay type: cell-based; conditions: 48 hours exposure
Protocol: as §2

Candida albicans = conditions: particularly against Candida albicans, in vitro and in vivo; cited from earlier work
[7] = system: formation of IgE-like antibodies; conditions: in vivo; cited from earlier work
[8] = system: experimental allergic encephalomyelitis model; conditions: model for multiple sclerosis; cited from earlier work

Molecule	IC50 ([1]; LAF, PHA and IL-1, 72 hours, read-out: IC50 analog)	R/A (ratio of the ID50s of rapamycin to the analog) ([1]; ratio less than 1.0 means the analog is less potent than rapamycin)	Skin Graft MST ± S.D. (mean graft survival time) [2]	Adjuvant Arthritis % Change (uninjected paw at day 16 versus control) ([3]; 2 mg/kg, oral, more negative = more potent)	inhibition of cancer cell line growth [4]	inhibition of cancer cell line growth [5]	inhibition of cancer cell line growth [6]	immune-induced inflammation less than control rats ([3]; rapamycin treated rats versus control rats)	antifungal activity (Candida albicans)	inhibition of formation of IgE-like antibodies [7]	effect in experimental allergic encephalomyelitis model [8]
29-O-Benzylrapamycin [Example 1]	4.2 nM	0.12	7.2 days	–	–	–	–	–	–	–	–
COCCOCCOCCO[C@@H]1CC[C@@H](C[C@@H](C)[C@@H]2CC(=O)[C@H](C)/C=C(\C)[C@@H](O)[C@@H](OC)C(=O)[C@H](C)C[C@H](C)/C=C/C=C/C=C(\C)[C@@H](OC)C[C@@H]3CC[C@@H](C)[C@@](O)(O3)C(=O)C(=O)N3CCCC[C@H]3C(=O)O2)C[C@H]1OC [Example 3, 42-O-(2-[2-(2-methoxyethoxy)-ethoxy]-ethyl)-rapamycin]	–	–	9.8 days and 9.7 days	-88%	submicromolar concentrations	submicromolar concentrations	submicromolar concentrations	–	–	–	–
CO[C@H]1C[C@@H]2CC[C@@H](C)[C@@](O)(O2)C(=O)C(=O)N2CCCC[C@H]2C(=O)O[C@H]([C@H](C)C[C@@H]2CC[C@@H](O)[C@H](OC)C2)CC(=O)[C@H](C)/C=C(\C)[C@@H](O)[C@@H](OC)C(=O)[C@H](C)C[C@H](C)/C=C/C=C/C=C/1C [rapamycin]	–	–	12.0 ± 1.7 days	–	–	–	–	70-90%	antifungal activity	effectively inhibited	effective

Source: patent US5922730A, “Alkylated rapamycin derivatives” (American Home Products Corporation, priority 1998, dated 1999)
